The results in this text go back to patent US20150376172A1, “FLUORO-[1,3]OXAZINES AS BACE1 INHIBITORS” (HOFFMANN-LA ROCHE INC., priority 2013, published 2015).

Structures can show the parent of a compound that is named as a salt.

The term IC50 denotes the midpoint of a concentration-inhibition curve.

The target of this test is T1, BACE1 (Homo sapiens, UniProt P56817).
T1 construct: endogenous in cells; host or cells: HEK293 APP cells
T1 sequence (P56817 46-501): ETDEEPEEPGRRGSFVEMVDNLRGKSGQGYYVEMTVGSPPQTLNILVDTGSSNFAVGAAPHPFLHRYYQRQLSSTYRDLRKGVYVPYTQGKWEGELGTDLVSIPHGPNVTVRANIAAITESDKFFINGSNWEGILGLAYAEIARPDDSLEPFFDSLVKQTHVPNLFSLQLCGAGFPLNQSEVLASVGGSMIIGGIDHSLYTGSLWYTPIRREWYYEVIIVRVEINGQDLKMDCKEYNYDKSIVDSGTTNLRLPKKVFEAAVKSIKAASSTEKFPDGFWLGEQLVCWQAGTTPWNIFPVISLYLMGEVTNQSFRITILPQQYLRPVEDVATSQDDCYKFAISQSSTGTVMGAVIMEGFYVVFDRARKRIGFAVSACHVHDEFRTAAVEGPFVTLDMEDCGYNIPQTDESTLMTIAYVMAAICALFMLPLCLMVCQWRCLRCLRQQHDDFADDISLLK
Nature of the test: Cellular Aβ-lowering assay (Abeta 40 AlphaLISA). To be noted: HEK293 APP cells; 18-20 hrs incubation; Aβ 40 in culture supernatants by AlphaLISA; read-out: BACE1 cell act. Aβ40 IC50. It counts as cell-based. Here is the method: Cellular Aβ-lowering assay:
The Abeta 40 AlphaLISA Assay can be used. The HEK293 APP cells were seeded in 96 well Microtiter plates in cell culture medium (Iscove's, plus 10% (v/v) fetal bovine serum, penicillin/streptomycin) to about 80% confluency and the compounds were added at a 3× concentration in ⅓ volume of culture medium (final DMSO concentration was kept at 1% v/v). After 18-20 hrs incubation at 37° C. and 5% CO2 in a humidified incubator, the culture supernatants were harvested for the determination of Aβ 40 concentrations using Perkin-Elmer Human Amyloid beta 1-40 (high specificity) Kit (Cat#AL275C).
In a Perkin-Elmer White Optiplate-384 (Cat#6007290), 2 ul culture supernatants were combined with 2 μl of a 10× AlphaLISA Anti-hAβAcceptor beads+Biotinylated Antibody Anti-Aβ1-40 Mix (50 μg/mL/5 nM). After 1 hour room temperature incubation, 16 μl of a 1.25× preparation of Streptavidin (SA) Donor beads (25 μg/mL) were added and incubated for 30 minutes in the Dark. Light Emission at 615 nm was then recorded using EnVision-Alpha Reader. Levels of Aβ 40 in the culture supernatants were calculated as percentage of maximum signal (cells treated with 1% DMSO without inhibitor). The IC50 values were calculated using the Excel XLfit software.
Regarding `C[C@@]1(c2cc(C#Cc3ccc(Cl)nc3)ccc2F)C[C@@H](C(F)(F)F)OC(N)=N1` [Example 76, (4S,6S)-4-[5-[2-(6-Chloropyridin-3-yl)ethynyl]-2-fluorophenyl]-4-methyl-6-(trifluoromethyl)-5,6-dihydro-1,3-oxazin-2-amine], the IC50 came out at 1.92 µM.
Then `N#Cc1ccc(C#Cc2ccc(F)c([C@]3(CF)C[C@@H](C(F)(F)F)OC(N)=N3)c2)nc1` [Example 62, 6-((3-((4S,6S)-2-Amino-4-(fluoromethyl)-6-(trifluoromethyl)-5,6-dihydro-4H-1,3-oxazin-4-yl)-4-fluorophenyl)ethynyl)nicotinonitrile], with 0.4 µM; and `Cc1cc(F)c([C@]2(C)C[C@@H](C(F)(F)F)OC(N)=N2)cc1C#Cc1ccc(C#N)cn1` [Example 70, 6-((5-((4S,6S)-2-Amino-4-methyl-6-(trifluoromethyl)-5,6-dihydro-4H-1,3-oxazin-4-yl)-4-fluoro-2-methylphenyl)ethynyl)nicotinonitrile], with 0.57 µM; and `N#Cc1ccc(C#Cc2ccc(F)c([C@]3(CF)C[C@@H](C(F)(F)F)OC(N)=N3)c2)cc1` [Example 60, 4-((3-((4S,6S)-2-Amino-4-(fluoromethyl)-6-(trifluoromethyl)-5,6-dihydro-4H-1,3-oxazin-4-yl)-4-fluorophenyl)ethynyl)benzonitrile], with 0.65 µM.
Consider `C[C@@]1(c2cc(-c3cnn(C(F)F)c3)ccc2F)C[C@@H](C(F)(F)F)OC(N)=N1` [Example 16, (4S,6S)-4-(5-(1-(Difluoromethyl)-1H-pyrazol-4-yl)-2-fluorophenyl)-4-methyl-6-(trifluoromethyl)-5,6-dihydro-4H-1,3-oxazin-2-amine], for which the IC50 stood at 1.1 µM.
Turning to `Cc1cc(C#Cc2ccc(F)c([C@]3(C)C[C@@H](C(F)(F)F)OC(N)=N3)c2)sn1` [Example 65, (4S,6S)-4-(2-Fluoro-5-((3-methylisothiazol-5-yl)ethynyl)phenyl)-4-methyl-6-(trifluoromethyl)-5,6-dihydro-4H-1,3-oxazin-2-amine], the concentration for half-maximal inhibition (IC50) worked out at 0.059 µM.
Then `C[C@@]1(c2cc(C#Cc3cncnc3)ccc2F)C[C@@H](C(F)(F)F)OC(N)=N1` [Example 50, (4S,6S)-4-(2-fluoro-5-(pyrimidin-5-ylethynyl)phenyl)-4-methyl-6-(trifluoromethyl)-5,6-dihydro-4H-1,3-oxazin-2-amine], with 2.66 µM.
For `C[C@@]1(c2cc(C#Cc3ccc(C#N)cc3)ccc2F)C[C@@H](C(F)(F)F)OC(N)=N1` [Example 66, 4-((3-((4S,6S)-2-Amino-4-methyl-6-(trifluoromethyl)-5,6-dihydro-4H-1,3-oxazin-4-yl)-4-fluorophenyl)ethynyl)benzonitrile], the concentration for half-maximal inhibition (IC50) was found to be 0.2 µM.
Next, `C[C@@]1(c2cc(-c3cncc(C#N)c3)ccc2F)C[C@@H](C(F)(F)F)OC(N)=N1` [Example 12, 5-(3-((4S,6S)-2-Amino-4-methyl-6-(trifluoromethyl)-5,6-dihydro-4H-1,3-oxazin-4-yl)-4-fluorophenyl)nicotinonitrile]: 0.9 µM; `C[C@@]1(c2cc(C#Cc3ccc(C#N)nc3)ccc2F)C[C@@H](C(F)(F)F)OC(N)=N1` [Example 46, 5-((3-((4S,6S)-2-amino-4-methyl-6-(trifluoromethyl)-5,6-dihydro-4H-1,3-oxazin-4-yl)-4-fluorophenyl)ethynyl)picolinonitrile]: 0.45 µM.
Take `C[C@]1(c2cc(NC(=O)c3cnc(C(F)F)cn3)ccc2F)N=C(N)O[C@H](C(F)(F)F)[C@@H]1F` [Example 6, N-(3-((4R,5R,6S)-2-Amino-5-fluoro-4-methyl-6-(trifluoromethyl)-5,6-dihydro-4H-1,3-oxazin-4-yl)-4-fluorophenyl)-5-(difluoromethyl)pyrazine-2-carboxamide]: the half-maximal inhibitory concentration (IC50) turned out to be 0.058 µM.
Then `C[C@@]1(c2cc(C#Cc3ncc(Cl)cn3)ccc2F)C[C@@H](C(F)(F)F)OC(N)=N1` [Example 23, (4S,6S)-4-(5-((5-Chloropyrimidin-2-yl)ethynyl)-2-fluorophenyl)-4-methyl-6-(trifluoromethyl)-5,6-dihydro-4H-1,3-oxazin-2-amine], with 0.077 µM; and `C[C@@]1(c2cc(-c3cncnc3)c(F)cc2F)C[C@@H](C(F)(F)F)OC(N)=N1` [Example 17, (4S,6S)-4-(2,4-Difluoro-5-(pyrimidin-5-yl)phenyl)-4-methyl-6-(trifluoromethyl)-5,6-dihydro-4H-1,3-oxazin-2-amine], with 0.19 µM.
Turning to `Cc1cc(F)c([C@]2(C)C[C@@H](C(F)(F)F)OC(N)=N2)cc1C#Cc1nn(C(F)F)cc1Cl` [Example 71, (4S,6S)-4-(5-((4-Chloro-1-(difluoromethyl)-1H-pyrazol-3-yl)ethynyl)-2-fluoro-4-methylphenyl)-4-methyl-6-(trifluoromethyl)-5,6-dihydro-4H-1,3-oxazin-2-amine], the half-inhibitory concentration (IC50) worked out at 0.18 µM.
Consider `C[C@@]1(c2sc(-c3cccc(C#N)c3)cc2Cl)C[C@@H](C(F)(F)F)OC(N)=N1` [Example 33, 3-(5-((4S,6S)-2-Amino-4-methyl-6-(trifluoromethyl)-5,6-dihydro-4H-1,3-oxazin-4-yl)-4-chlorothiophen-2-yl)benzonitrile], for which the 50% inhibitory concentration (IC50) turned out to be 0.51 µM.
`COc1cnc(C#Cc2ccc(F)c([C@]3(C)C[C@@H](C(F)(F)F)OC(N)=N3)c2)nc1` [Example 24, (4S,6S)-4-(2-Fluoro-5-((5-methoxypyrimidin-2-yl)ethynyl)phenyl)-4-methyl-6-(trifluoromethyl)-5,6-dihydro-4H-1,3-oxazin-2-amine]: the IC50 came to 1.67 µM.
For `C[C@@]1(c2sc(-c3cncc(Cl)c3)cc2Cl)C[C@@H](C(F)(F)F)OC(N)=N1` [Example 32, (4S,6S)-4-(3-Chloro-5-(5-chloropyridin-3-yl)thiophen-2-yl)-4-methyl-6-(trifluoromethyl)-5,6-dihydro-4H-1,3-oxazin-2-amine], the IC50 worked out at 0.74 µM.
`C[C@@]1(c2cc(-c3cccnc3F)cs2)C[C@@H](C(F)(F)F)OC(N)=N1` [Example 27, (4S,6S)-4-(4-(2-Fluoropyridin-3-yl)thiophen-2-yl)-4-methyl-6-(trifluoromethyl)-5,6-dihydro-4H-1,3-oxazin-2-amine Hydrochloride]: the IC50 was 1.38 µM.
Then `C[C@]1(c2cc(NC(=O)c3ccc(C#N)cn3)ccc2F)N=C(N)O[C@H](C(F)(F)F)[C@@H]1F` [Example 2, N-(3-((4R,5R,6S)-2-Amino-5-fluoro-4-methyl-6-(trifluoromethyl)-5,6-dihydro-4H-1,3-oxazin-4-yl)-4-fluorophenyl)-5-cyanopicolinamide], with 0.01 µM.
